Broadly, the IC50 is the midpoint of a concentration-inhibition curve. As a reminder, the inhibition is the drop in the measured response relative to a control, in per cent. In general, melting point refers to the temperature, or range, at which the solid turns liquid.

Series [1] addresses human BACE1 (Homo sapiens, UniProt P56817). In words: Fluorescent kinetic assay, inhibition of BACE1 (WABC-6 peptide substrate). The format is biochemical. The settings on record: 10 nM enzyme, 25 μM substrate, pH 4.5, room temperature; read-out: IC50 (μM) BACE1. The protocol:
Evaluation of the Enzyme Activity of Test Compounds and the Inhibition of hBACE1, MuBACE1 and hBACE2 by Test Compounds
The concentration is determined by absorbance at 354 nm using an extinction coefficient ε of 18172 M^−1cm^−1, The substrate stock is stored in small aliquots at −80° C. [Substrate Stock]=ABS^354 nm*10^6/18172 ([…])
Dilution and mixing steps: total reaction volume: 100 μL • 1. 2× inhibitor dilutions in buffer A (66.7 mM Na-Acetate, pH 4.5, 0.0667% CHAPS) are prepared, • 2. 4× enzyme dilution in buffer A (66.7 mM Na-Acetate, pH 4.5, 0.0667% CHAPS) are prepared, • 3. 100 μM substrate dilution in 1× PBS is prepared, • 4. 50 μL 2× Inhibitor and 25 μL 100 μM substrate are added to each well of 96-well plate (from DYNEX Technologies, VWR #: 11311-046), the immediately 25 μL 4× enzyme are added to the inhibitor and substrate mixer, the fluorescence readings are initiated.
Readings at λex 320 nm and λem 420 nm are taken every 40-sec for 30 min at room temperature to determine the linear slope for substrate cleavage rate (vi).

Series [2] concerns the target T1, human BACE2 (Homo sapiens, UniProt Q9Y5Z0).
T1 sequence (Q9Y5Z0 63-518): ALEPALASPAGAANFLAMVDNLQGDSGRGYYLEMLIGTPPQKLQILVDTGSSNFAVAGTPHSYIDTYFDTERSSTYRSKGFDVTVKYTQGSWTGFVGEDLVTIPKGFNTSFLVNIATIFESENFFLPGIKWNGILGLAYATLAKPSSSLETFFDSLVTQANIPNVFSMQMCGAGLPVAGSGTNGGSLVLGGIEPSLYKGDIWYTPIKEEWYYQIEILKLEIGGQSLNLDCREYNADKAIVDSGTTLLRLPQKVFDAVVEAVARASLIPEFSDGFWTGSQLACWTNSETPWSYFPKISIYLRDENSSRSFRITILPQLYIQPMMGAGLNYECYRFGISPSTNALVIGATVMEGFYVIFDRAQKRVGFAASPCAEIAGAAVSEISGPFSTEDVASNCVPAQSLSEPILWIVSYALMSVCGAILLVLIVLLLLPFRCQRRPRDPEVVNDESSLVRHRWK
Put plainly: Fluorescent kinetic assay for human recombinant BACE 2 (WABC-6 peptide substrate). Format: biochemical. The settings on record: for IC50: 1.5 nM enzyme, 25 μM substrate, pH 4.5, room temperature. Here is the method: Fluorescent Kinetic Assay for Human Recombinant BACE 2
This assay is used to provide kinetic and selectivity parameters for the analyses of the tested compounds.
Temperature: room temperature.
Dilution and Mixing Steps: Total Reaction Volume.: 100 μL • 1.
Readings at λex 320 nm, λem 420 nm are taken every 40-sec for 30 min at room temperature and to determine the linear slope for substrate cleavage rate (vi).

Sequence of human BACE1 (P56817 46-501): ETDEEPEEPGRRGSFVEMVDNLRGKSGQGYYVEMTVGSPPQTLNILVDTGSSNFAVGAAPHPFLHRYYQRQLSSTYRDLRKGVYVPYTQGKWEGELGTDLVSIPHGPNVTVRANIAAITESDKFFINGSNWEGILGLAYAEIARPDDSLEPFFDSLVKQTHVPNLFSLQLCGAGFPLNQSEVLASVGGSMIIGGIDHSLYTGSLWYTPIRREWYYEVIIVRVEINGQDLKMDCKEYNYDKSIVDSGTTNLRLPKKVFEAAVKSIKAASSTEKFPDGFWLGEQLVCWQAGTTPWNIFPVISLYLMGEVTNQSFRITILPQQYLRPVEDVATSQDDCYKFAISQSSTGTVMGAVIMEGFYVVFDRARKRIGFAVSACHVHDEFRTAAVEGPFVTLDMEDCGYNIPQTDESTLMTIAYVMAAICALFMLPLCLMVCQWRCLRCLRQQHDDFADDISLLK

The compound `NC1=NC(c2cccc(-c3cccnc3F)c2)(c2ccc3c(c2)OC(F)(F)O3)C2=NCCCN12` (stereo not drawn) [Example 43, 8-(2,2-Difluoro-benzo[1,3]dioxol-5-yl)-8-[3-(2-fluoro-pyridin-3-yl)-phenyl]-2,3,4,8-tetrahydro-imidazo[1,5-a]pyrimidin-6-ylamine] returned a melting point of 95 to 99 °C. Also, the IC50 in series [1] stood at 0.74 µM. Also, the inhibition at 25 µM in series [2] (at 25 μM, read-out: BACE2. % inhibition) came out at 53%.

Turning to `NC1=NC(c2ccc(OC(F)F)cc2)(c2cccc(-c3cccnc3F)c2)C2=NCC3(CC3)CN12` (stereo not drawn) [Example 44, 8′-[4-(Difluoromethoxy)phenyl]-8′-[3-(2-fluoropyridin-3-yl)phenyl]-2′,8′-dihydrospiro[cyclopropane-1,3′-imidazo[1,5-a]pyrimidin]-6′-amine], the melting point was in the range of 98 to 108 °C. For the same compound, in series [1], the IC50 came out at 0.02 µM. The concentration for half-maximal inhibition (IC50) in series [2] was determined as 2.26 µM.

`NC1=NC(c2ccc(OC(F)F)cc2)(c2cccc(-c3cccnc3F)c2)C2=NCC3(COC3)CN12` (stereo not drawn) [Example 46, 8-[4-(Difluoromethoxy)phenyl]-8-[3-(2-fluoropyridin-3-yl)phenyl]-2,8-dihydrospiro[imidazo[1,5-a]pyrimidine-3,3′-oxetan]-6-amine] had a melting point of 96 to 107 °C. For the same compound, the IC50 in series [1] was determined as 0.01 µM. Also, the IC50 in series [2] was found to be 0.55 µM.

`NC1=NC(c2ccc(OC(F)F)cc2)(c2cccc(-c3cccnc3F)c2)C2=NCC3(CCC3)CN12` (stereo not drawn) [Example 47, 8′-[4-(difluoromethoxy)phenyl]-8′-[3-(2-fluoropyridin-3-yl)phenyl]-2′,8′-dihydrospiro[cyclobutane-1,3′-imidazo[1,5-a]pyrimidin]-6′-amine] had a melting point of 220 to 226 °C. Besides, the IC50 in series [1] came to 0.01 µM. In addition, in series [2], the 50% inhibitory concentration (IC50) is 1.15 µM.

The values above are taken from US20090042912A1, “DIPHENYLIMIDAZOLYL COMPOUNDS AS INHIBITORS OF beta-SECRETASE” (Wyeth, priority 2004, published 2009).
